Measurements from patent publication US4831170A, “Pharmaceutically active phospino-hydrocarbon-group VIII-metal complexes, antitumor compositions containing these complexes, and a process for preparing said compounds or antitumor compositions” (priority 1985, dated 1989).
“And” between values parts separate entries of the source, which are not always exact repeats. Equal entries are not always repeated.

Assays:
P388 murine leukemia = assay: Antitumor activity against P388 murine leukemia in CDF1 mice; assay type: in vivo; conditions: 1 x on day 1; for P 388 Dose producing the maximum % T/C: administered ip; for P 388 Maximum % T/C: median survival time treated/saline control x 100, ip, active if ≥125
Procedure: (§1) All of the metal complexes were tested for antitumor activity against P388 murine leukemia. Selected compounds were also tested for antitumor activity against L1210 murine leukemia and a subline of L1210 murine leukemia resistant to cisplatin (L1210:DDP). CDF1 mice weighing 20 grams were inoculated intraperitoneally with 10^6 ascites cells of P388 leukemia, L1210 leukemia or L1210:DDP leukemia, depending on the test system being used. Drug administration was initiated the day following tumor implantation in all test systems. The complexes were administered at various dose levels by intraperitoneal injection. Groups of four to six mice were used for each dose level and they were treated with the complex on day one only. A group of ten saline treated control mice was included in each experiment. Cisplatin treated groups were included as a positive control in each experiment. The mice were weighed before treatment and again on day five or six and the average weight change used as a measure of toxicity. The animals were observed daily for mortality and the experiments terminated after 30 days. Antitumor activity was determined based on % T/C, which is the ratio of the median survival time of the drug treated group to the median survival time of the saline treated control group times 100. The saline treated mice usually have a median survival time of 9 days with P388 leukemia and 7 days with L1210 and L1210/DDP leukemia. A complex is considered active if it produces a % T/C of ≥125.
(§2) Tables II and IIa contain summaries of the evaluations of the compounds for antitumor activity against the murine leukemias. Listed for each compound is the maximum % T/C achieved and the dose producing that effect.
(§3) For the in vitro cytotoxicity studies the drugs were dissolved or suspended, depending on their solubility, in 0.9% NaCl solution. Occasionally, 5% dextrose in water or 10% DMSO in 0.9% NaCl was used. The compounds were prepared for in vivo treatment by dissolving or suspending, with the addition of minimal amounts of Tween 80, in water.

B16 Melanoma = assay: Antitumor activity against B16 Melanoma in BDF1 mice; assay type: in vivo; conditions: for B 16 Dose producing the maximum % T/C: administered ip, days 1-9; for B 16 Maximum % T/C: median survival time vs saline control, ip, daily days 1-9, active if ≥125, figures separated by slashes are from separate experiments
Procedure: Several of the metal complexes were additionally evaluated for antitumor activity against B16 Melanoma. BDF1 mice, 10 per group, were inoculated intraperitoneally with 0.5 ml of a 10 percent (w:v) brei of B16 Melanoma. Intraperitoneal treatment with the metal complexes was initiated one day after implant and continued daily for a total of nine days. From 4 to 5 doses were tested for each compound under study. A saline treated control group and cisplatin treated groups were included in each experiment. The mice were observed daily for survivors and the experiments terminated after 60 days. […] The median survival time of the drug treated mice relative to that of the controls (% T/C) was used as a measure of antitumor activity.
Occasionally, 5% dextrose in water or 10% DMSO in 0.9% NaCl was used. The compounds were prepared for in vivo treatment by dissolving or suspending, with the addition of minimal amounts of Tween 80, in water.

[1] = tested on: B16-F10 murine melanoma cells; assay: In vitro cytotoxicity, B16-F10 murine melanoma cells (72 h, crystal violet); assay type: cell-based
Procedure: (§4) Logarithmically growing cells were harvested by mild trypsinization and 4000 cells were added to each well of a 96-well microtiter plate (Costar). […] The cells were then treated with a metal complex or cisplatin and incubated for 72 hours. The plates were inverted and shaken to remove media, drug and detached cells. […] The fixative was removed, the plates air dried, stained with 0.0075% crystal violet for 15 minutes, washed twice and air dried. The stain was solubilized with 0.2 ml of 0.1 M AcOH/EtOH (1:1) and optical densities determined using a Dynatech MR600 microtiter plate reader. […] The compounds were prepared for in vivo treatment by dissolving or suspending, with the addition of minimal amounts of Tween 80, in water.

L1210 murine leukemia = assay: Antitumor activity against L1210 murine leukemia in CDF1 mice; assay type: in vivo; conditions: day 1; for L1210 Dose producing the maximum % T/C: administered ip; for L1210 Max. % T/C: median survival time treated/saline control x 100, ip, active if ≥125
Procedure: as §1, §2, §3

[2] = tested on: L1210 murine leukemia resistant to cisplatin (L1210:DDP); assay: Antitumor activity against cisplatin-resistant L1210 murine leukemia (L1210/DDP) in CDF1 mice; assay type: in vivo; conditions: cisplatin-resistant subline, day 1; for L1210/DDP Dose producing the maximum % T/C: administered ip; for L1210/DDP Max. % T/C: done concomitantly with L1210 test, ip, active if ≥125
Procedure: as §1, §2, §3

[3] = tested on: HCT-116 human colon carcinoma cells; assay: In vitro cytotoxicity, HCT-116 human colon carcinoma cells (72 h, crystal violet); assay type: cell-based; conditions: HCT-116 cells
Procedure: as §4

## Bis[1,2-bis(diphenylphosphino)ethane] iridium(I) perchlorate [TNO 344]
P388 murine leukemia
  P 388 Dose producing the maximum % T/C: 200 mg/kg
  P 388 Maximum % T/C: 167 % T/C
B16 Melanoma
  B 16 Dose producing the maximum % T/C: 20 mg/kg/inj.
  B 16 Maximum % T/C: 150 % T/C

## Bis[1,2-bis(diphenylphosphino)ethane]palladium(II) dichlorate [TNO 306]
[1]
  IC 50 (concentration which inhibits cell growth by 50%), B 16: 57 µg/mL
P388 murine leukemia
  P 388 Dose producing the maximum % T/C: 60 mg/kg
  P 388 Maximum % T/C: 144 % T/C
L1210 murine leukemia
  L1210 Dose producing the maximum % T/C: 1.9 mg/kg
  L1210 Max. % T/C: 100 % T/C
[2]
  L1210/DDP Dose producing the maximum % T/C: 3.0 mg/kg
  L1210/DDP Max. % T/C: 100 % T/C
B16 Melanoma
  B 16 Dose producing the maximum % T/C: 12 mg/kg/inj.
  B 16 Maximum % T/C: 202 % T/C and 151 % T/C

## Bis[1,2-bis(diphenylphosphino)ethane] dichloro rhodium(III) perchlorate [TNO 355]
P388 murine leukemia
  P 388 Dose producing the maximum % T/C: 100 mg/kg
  P 388 Maximum % T/C: 167 % T/C
L1210 murine leukemia
  L1210 Dose producing the maximum % T/C: 80 mg/kg
  L1210 Max. % T/C: 114 % T/C
[2]
  L1210/DDP Dose producing the maximum % T/C: 49 mg/kg
  L1210/DDP Max. % T/C: 119 % T/C
B16 Melanoma
  B 16 Dose producing the maximum % T/C: 30 mg/kg/inj.
  B 16 Maximum % T/C: 171 % T/C

## [Cl-].[Cl-].[Cl-].[Rh+3].c1ccc(P(CCP(c2ccccc2)c2ccccc2)c2ccccc2)cc1.c1ccc(P(CCP(c2ccccc2)c2ccccc2)c2ccccc2)cc1 [TNO 363, Bis[1,2-bis(diphenylphosphino)ethane]dichloro rhodium(III) chloride]
P388 murine leukemia
  P 388 Dose producing the maximum % T/C: 50 mg/kg
  P 388 Maximum % T/C: 133 % T/C

## O=S(=O)([O-])C(F)(F)F.[Rh+].c1ccc(P(CCP(c2ccccc2)c2ccccc2)c2ccccc2)cc1.c1ccc(P(CCP(c2ccccc2)c2ccccc2)c2ccccc2)cc1 [TNO 302, Bis[1,2-bis(diphenylphosphino)ethane]rhodium(I) triflate]
P388 murine leukemia
  P 388 Dose producing the maximum % T/C: 4 mg/kg
  P 388 Maximum % T/C: 153 % T/C
B16 Melanoma
  B 16 Dose producing the maximum % T/C: 3.2 mg/kg/inj.
  B 16 Maximum % T/C: 150 % T/C and 126 % T/C

## C(=CP(c1ccccc1)c1ccccc1)P(c1ccccc1)c1ccccc1.C(=CP(c1ccccc1)c1ccccc1)P(c1ccccc1)c1ccccc1.[Cl-].[Cl-].[Fe+2] [TNO 396, Bis[cis-1,2-bis(diphenylphosphino)ethylene]dichloro iron(II)]
[3]
  IC 50 (concentration which inhibits cell growth by 50%), HCT 116: 383 µg/mL
[1]
  IC 50 (concentration which inhibits cell growth by 50%), B 16: 452 µg/mL
P388 murine leukemia
  P 388 Dose producing the maximum % T/C: 200 mg/kg
  P 388 Maximum % T/C: 150 % T/C

## [O-][Cl+3]([O-])([O-])[O-].[O-][Cl+3]([O-])([O-])[O-].[Pd+2].c1ccc(P(CCP(c2ccccc2)c2ccccc2)c2ccccc2)cc1.c1ccc(P(CCP(c2ccccc2)c2ccccc2)c2ccccc2)cc1 [TNO 343, Bis[1,2-bis(diphenylphosphino)ethane]palladium(II) diperchlorate]
P388 murine leukemia
  P 388 Dose producing the maximum % T/C: 200 mg/kg
  P 388 Maximum % T/C: 178 % T/C
B16 Melanoma
  B 16 Dose producing the maximum % T/C: 60 mg/kg/inj.
  B 16 Maximum % T/C: 204 % T/C

## [Br-].[Br][Pd+].c1ccc(P(CCP(c2ccccc2)c2ccccc2)c2ccccc2)cc1.c1ccc(P(CCP(c2ccccc2)c2ccccc2)c2ccccc2)cc1 [TNO 376, Bis[1,2-bis(diphenylphosphino)ethane]bromo palladium(II) bromide]
[3]
  IC 50 (concentration which inhibits cell growth by 50%), HCT 116: 6.3 µg/mL
[1]
  IC 50 (concentration which inhibits cell growth by 50%), B 16: 0.7 µg/mL

## O=[N+]([O-])[O-].O=[N+]([O-])[O-].[Pd+2].c1ccc(P(CCP(c2ccccc2)c2ccccc2)c2ccccc2)cc1.c1ccc(P(CCP(c2ccccc2)c2ccccc2)c2ccccc2)cc1 [TNO 345, Bis[1,2-bis(diphenylphosphino)ethane]palladium(II) dinitrate]
[3]
  IC 50 (concentration which inhibits cell growth by 50%), HCT 116: 19.6 µg/mL
[1]
  IC 50 (concentration which inhibits cell growth by 50%), B 16: 4.0 µg/mL
L1210 murine leukemia
  L1210 Dose producing the maximum % T/C: 0,8 mg/kg
  L1210 Max. % T/C: 100 % T/C

## Bis[cis-1,2-bis(diphenylphosphino)ethylene]dichloro iron(III) tetrachloroferrate(III) [TNO 405]
P388 murine leukemia
  P 388 Dose producing the maximum % T/C: 100 mg/kg
  P 388 Maximum % T/C: 160 % T/C

## [I-].[I-].[Pd+2].c1ccc(P(CCP(c2ccccc2)c2ccccc2)c2ccccc2)cc1.c1ccc(P(CCP(c2ccccc2)c2ccccc2)c2ccccc2)cc1 [TNO 342, Bis[1,2-(diphenylphosphino)ethane]diiodo palladium(II)]
P388 murine leukemia
  P 388 Dose producing the maximum % T/C: 5 mg/kg
  P 388 Maximum % T/C: 139 % T/C

## Bis[cis-1,2-bis(diphenylphosphino)ethylene]palladium(II) dichloride [TNO 357]
[3]
  IC 50 (concentration which inhibits cell growth by 50%), HCT 116: 13.1 µg/mL
[1]
  IC 50 (concentration which inhibits cell growth by 50%), B 16: 27.7 µg/mL

## [Cl-].[Cl-].[O-][Cl+3]([O-])([O-])[O-].[Rh+3].c1ccc(P(CC[As](c2ccccc2)c2ccccc2)c2ccccc2)cc1.c1ccc(P(CC[As](c2ccccc2)c2ccccc2)c2ccccc2)cc1 [TNO 395, Bis[1-diphenylphosphino-2-diphenylarsinoethane]dichloro rhodium(III) perchlorate]
P388 murine leukemia
  P 388 Dose producing the maximum % T/C: 200 mg/kg
  P 388 Maximum % T/C: 136 % T/C

## [O-][Cl+3]([O-])([O-])[O-].[Rh+].c1ccc(P(CCP(c2ccccc2)c2ccccc2)c2ccccc2)cc1.c1ccc(P(CCP(c2ccccc2)c2ccccc2)c2ccccc2)cc1 [TNO 316, Bis[1,2-bis(diphenylphosphino)ethane]rhodium(I) perchlorate]
P388 murine leukemia
  P 388 Dose producing the maximum % T/C: 12.5 mg/kg
  P 388 Maximum % T/C: 150 % T/C
L1210 murine leukemia
  L1210 Dose producing the maximum % T/C: 160 mg/kg
  L1210 Max. % T/C: 133 % T/C
[2]
  L1210/DDP Dose producing the maximum % T/C: 120 mg/kg
  L1210/DDP Max. % T/C: 157 % T/C
B16 Melanoma
  B 16 Dose producing the maximum % T/C: 16 mg/kg/inj.
  B 16 Maximum % T/C: 131 % T/C

## [Br-].[Br-].[Co+2].c1ccc(P(CCP(c2ccccc2)c2ccccc2)c2ccccc2)cc1.c1ccc(P(CCP(c2ccccc2)c2ccccc2)c2ccccc2)cc1 [TNO 346, Bis[1,2-bis(diphenylphosphino)ethane]bromo cobalt(II) bromide]
P388 murine leukemia
  P 388 Dose producing the maximum % T/C: 100 mg/kg
  P 388 Maximum % T/C: 167 % T/C
L1210 murine leukemia
  L1210 Dose producing the maximum % T/C: 200 mg/kg
  L1210 Max. % T/C: 100 % T/C

## Bis[1,2-bis(diphenylphosphino)ethane] cobalt(II) diperchlorate [TNO 358]
P388 murine leukemia
  P 388 Dose producing the maximum % T/C: 100 mg/kg
  P 388 Maximum % T/C: 144 % T/C
L1210 murine leukemia
  L1210 Dose producing the maximum % T/C: 120 mg/kg
  L1210 Max. % T/C: 142 % T/C
[2]
  L1210/DDP Dose producing the maximum % T/C: 100 mg/kg
  L1210/DDP Max. % T/C: 143 % T/C
B16 Melanoma
  B 16 Dose producing the maximum % T/C: 20 mg/kg/inj.
  B 16 Maximum % T/C: 150 % T/C

## Bis[1,2-bis(diphenylphosphino)ethane] nickel(II) perchlorate [TNO 404]
P388 murine leukemia
  P 388 Dose producing the maximum % T/C: 25 mg/kg
  P 388 Maximum % T/C: 240 % T/C

## [Ir+3].[O-][Cl+3]([O-])([O-])[O-].[O-][O-].c1ccc(P(CCP(c2ccccc2)c2ccccc2)c2ccccc2)cc1.c1ccc(P(CCP(c2ccccc2)c2ccccc2)c2ccccc2)cc1 [TNO 413, Bis[1,2-bis(diphenylphosphino)ethane]peroxo iridium(III) perchlorate]
P388 murine leukemia
  P 388 Dose producing the maximum % T/C: 200 mg/kg
  P 388 Maximum % T/C: 170 % T/C
